# Measurements as given in a melting point compilation (Tetko et al.).
row,melting point [°C],SMILES
1,116 to 117,Brc1ccc(Br)nn1
2,116,CCCCC(=O)N(Cc1ccc(-c2ccccc2-c2nnn[nH]2)cc1)C(C(=O)O)C(C)C (stereo not drawn)
3,149,O=C(O)c1ccc(F)cc1[N+](=O)[O-]
4,34 to 36,COC(=O)[C@H](Cc1ccccc1)N=C=S
5,136 to 138,O=[N+]([O-])c1ccc(Oc2c(Cl)cccc2Cl)c(Cl)c1
6,212 to 213,O=C(Nc1nnc(-c2ccc(Cl)cc2)o1)c1ccc(Cl)cc1Cl
7,180,O=C(Cl)c1ccc2noc(-c3ccc(Cl)cc3)c2c1
8,161 to 162,CCOC(=O)C(C#N)=NNc1ccc(Cl)cc1
9,171 to 173,Nc1nnc(Cc2ccccc2)[nH]1
10,97.3,Nc1ccc(N)c(N)c1
11,26,Cc1cc(C(=O)Cl)ccc1Br
12,200,Clc1nc2ccccc2[nH]1
13,198 to 200,CCOc1ccc(-c2nnc3n2NC(c2ccc(OC)cc2)S3)cc1 (stereo not drawn)
14,35 to 39,CCCCCCCCOc1ccc(N)cc1
15,91 to 95,COc1ccc(-c2nnc(CCl)o2)cc1
16,53 to 57,O=S(=O)(Cl)c1cc(Cl)cc(Cl)c1
17,110,CCOC(=O)/C(C#N)=C(/c1ccc([N+](=O)[O-])cc1)C(C(=O)OCC)C(=O)OCC
18,74,CC1CCC(C)(COC(=O)c2ccc(N)cc2)C1(C)C (stereo not drawn)
19,31 to 33,Cc1ccc(C=O)c2ccccc12
20,> 270,c1ccc(-c2cc3cc4cc(-c5ccccc5)[nH]c4cc3[nH]2)cc1
21,21,COC(=O)c1cccc(Cl)c1
22,53 to 56,CC(=O)c1cc(Cl)ccc1O
23,108,CC(=O)/C=C1\NC(=O)c2ccccc21
24,29,CC(=O)Cc1ccco1

row,melting point [°C],SMILES
1,140,O=C(O)CONC(=O)c1ccccc1
2,125,N#Cc1ccc(O)cc1F
3,102,CC(COc1ccccc1)NC(C)C(O)c1ccc(O)cc1 (stereo not drawn)
4,240,Cc1ccc2c(c1)C(=O)c1ccc(C)cc1C2=O
5,158 to 159,O=C(Cl)c1ccc(N2CCOCC2)nc1
6,236,BrC(=C(\Br)c1ccccc1)/C(Br)=C(\Br)c1ccccc1
7,93,O=C1c2ccccc2CC2C=CC=CN12 (stereo not drawn)
8,109,COc1ccc(C(=O)O)c(OC)c1
9,252 to 255,O=c1[nH]c(=O)n(-c2cccc(C(F)(F)F)c2)c2c1CCCC2
10,207,Clc1cc(Cl)c2c(c1)oc1cc(Cl)cc(Cl)c12
11,219 to 221,O=C1Cc2cc(Br)ccc2N1
12,210,Cc1ccc(C(=O)O)cc1O
13,181 to 184,Cc1ccc(C2(C(=O)O)CCCC2)cc1
14,311,N#CC(=Cc1ccc([N+](=O)[O-])cc1)C(N)=S
15,255,NSCc1cc2ccccc2oc1=O
16,208 to 210,CC1(C)CC(=O)c2cc(-c3ccccc3)n(-c3ccc(F)cc3)c2C1
17,109 to 112,O=C(CBr)c1cc(-c2ccccc2)no1
18,178 to 179,Nc1ccc(C(C/C(=N/O)c2ccccc2)NO)cc1 (stereo not drawn)
19,300,CCOc1c(Nc2ccc(C(=O)O)cc2)c(=O)c1=O
20,206,CC1(C)CC(=O)C(=NNc2ccc(O)cc2)C(=O)C1
21,47,ClCCc1ccc(CCCl)cc1
22,221 to 223,NC(=O)c1ccc(CC(=O)c2ccc(Cl)cc2)cc1
23,207,COc1ccccc1-c1nnc2n1CN(C(C)C)CS2
24,60 to 75,CCCCC(C=O)NC(=O)C(CC(C)C)NC(=O)OCc1ccccc1 (stereo not drawn)

row,melting point [°C],SMILES
1,90 to 96,CCOC(=O)c1cc2cccc([N+](=O)[O-])c2[nH]1
2,233,O=C1c2[nH]c3ccc(Br)cc3c2CCN1Cc1ccc(Cl)cc1
3,101,O=C(O)Cc1cccc(Br)c1
4,151 to 152,O=C(O)c1cccc(Cn2cccn2)c1
5,86,Cc1sc(-c2ccccn2)nc1-c1ccccc1
6,67 to 70,c1ccc(C2OC2c2ccccc2)cc1 (stereo not drawn)
7,129,O=C(O)Cc1ccc(Cl)cc1Cl
8,113 to 114,CC(C)(C)c1cnc(C(=O)Nc2cccc(Br)c2)cn1
9,172,Oc1ccnc2c(C(F)(F)F)cccc12
10,120 to 125,CC(C)(C)OC(=O)N[C@H](CC#N)Cc1ccccc1
11,168,O=C(O)c1ccccc1OP(=O)(O)O
12,55 to 58,CC(=O)c1c(-c2ccccc2)noc1C
13,50,C=CCOC1(C#Cc2ccccc2)Cc2ccccc21 (stereo not drawn)
14,161,NC(=O)c1ccc(F)cc1F
15,143 to 146,NC(=S)C(c1ccccc1)c1ccccc1
16,142,Brc1cccc2c(CNCc3cccc4c(Br)cccc34)cccc12
17,262,CC(=O)NCCNc1cc(=O)oc2ccccc12
18,72 to 77,Nc1ccccc1CCc1ccccc1N
19,18.3,Cc1c(N=C=O)cccc1N=C=O
20,108 to 109,Nc1ccc(Sc2cc(Cl)ccc2Cl)nc1
21,153 to 156,Cc1ccc(S(=O)(=O)NN=Cc2ccccc2[N+](=O)[O-])cc1
22,2,O=[N+]([O-])c1ccccc1CCO
23,235,Cc1nc(O)ccc1[N+](=O)[O-]
24,102,CCN(Cc1c(F)cccc1Cl)c1c([N+](=O)[O-])cc(C(F)(F)F)cc1[N+](=O)[O-]

# More lines, now with the values behind:
row,SMILES,melting point [°C]
1,COc1ccc(NN=C2C(=O)NC(=S)NC2=O)cc1,246
2,CNC(=S)C#N,37 to 46
3,CCC(C)C(N)CO (stereo not drawn),36 to 39
4,CN=C1SC(CC(=O)O)C(=O)N1C (stereo not drawn),157 to 159
5,COc1ccc2c(c1)CC1(CCC(=O)CC1)C2=O,93
6,CC(=O)Nc1cc(NC(C)=O)c(C=Cc2ccccc2)cc1C=Cc1ccccc1,224
7,CC(=O)NC(N)=S,165
8,CCOC(=O)C(OC(=O)c1ccccc1)c1cc(C(OC(=O)c2ccccc2)C(=O)OCC)c([N+](=O)[O-])cc1[N+](=O)[O-] (stereo not drawn),133
9,COC1CCC=CO1 (stereo not drawn),16
10,O=c1ccnc[nH]1,163 to 168
11,C=C=O,-151
12,N#Cc1ccc(CCl)cc1,79
13,Cc1cc([N+]([O-])=Nc2ccc(N=Nc3ccccc3)cc2)ccc1N=Nc1ccc(N=Nc2ccccc2)cc1,193
14,C1CCCC2OC2CC1 (stereo not drawn),53 to 56
15,CC(=O)OC1CC[C@H]2[C@@H]3CC[C@@H]4C(Br)C(=O)CC[C@]4(C)[C@H]3CC[C@]12C (stereo partly drawn),181
16,CCC(COC(=O)c1cc(OC)c(OC)c(OC)c1)(c1ccccc1)N(C)C (stereo not drawn),79
17,CC(C)(C)N=O,81 to 83
18,Cc1cc(C)c(OC(=O)C(F)(F)F)cc1OC(=O)C(F)(F)F,121
19,CC(=N[Si](C)(C)C)O[Si](C)(C)C,24

row,SMILES,melting point [°C]
1,NCCCCC(=O)O,158 to 161
2,NNC(=O)CCCO,93
3,c1ccc(-c2ccc(-c3cnc(-c4ccc(-c5ccccc5)cc4)o3)cc2)cc1,239
4,Cn1ccc(S(=O)(=O)Cl)n1,36 to 39
5,C=C(CC(=O)OCC)C(=O)OCC,58.5
6,CNC(=NO)c1cc(C(C)(C)C)c(O)c(C(C)(C)C)c1,200 to 201
7,ClCc1cc2cc(Br)ccc2o1,63 to 64
8,O=C1C(=C2C(=Cc3coc4ccccc4c3=O)C(=O)c3ccccc32)C(=O)c2ccccc21,250 to 251
9,CCOC(=O)c1nn(-c2ccc(C)cc2)c(C)c1C(=O)c1noc(-c2ccc3ccccc3c2)c1S(=O)(=O)c1ccccc1,172
10,CC1=NNC(=O)CC1,79 to 83
11,O=S(c1ccc(Cl)cc1)c1ccc(Cl)cc1,140 to 145
12,O=CC(Cl)=C(Cl)C(=O)O,127
13,O=P(c1ccccc1)(c1ccccc1)C1C=C(c2ccc(Br)cc2)OC(c2ccc(Br)cc2)=C1,193 to 194
14,C=C[Si](Cl)(Cl)Cl,-95
15,CC(C)CCCC(C)C1CCC2C3CC=C4C=CCCC4(C)C3CCC12C (stereo not drawn),80
16,OC1OC2COC(c3ccccc3)OC2C(O)C1O (stereo not drawn),173 to 174
17,O=C(N[C@@H]1CCCC[C@@H]1C(=O)O)c1ccccc1,204 to 208
18,ClC1CCCCC1,-44
19,O=C1N[C@H]2CC[C@@H]1C2,76.2

row,SMILES,melting point [°C]
1,CC12CCC(O)CC1=CCC1C2CCC2(C)C1CCC2(O)C#Cc1ccccc1 (stereo not drawn),162 to 165
2,CCCCOC(=O)CC(O)(CC(=O)OCCCC)C(=O)OCCCC,-20
3,FC(F)CC(F)(F)F,-102
4,Cc1cc(C)c(C2(C)CC(C(=NNC(N)=O)c3cc4cc(Br)ccc4o3)C2)c(C)c1 (stereo not drawn),230 to 232
5,c1ccc2c(c1)ccc1ccc3ccccc3c12,68
6,CCCCCCCOC(C)=O,-50.2
7,O=c1cnn(C2OC(CO)C(O)C2O)c(=O)[nH]1 (stereo not drawn),158
8,Nc1c(Oc2ccccc2)c(Oc2ccccc2)c(N)c2c1C(=O)c1ccccc1C2=O,195
9,CCOC(=O)C(=O)C(=O)OCC,-30
10,CC1C(=O)CCCC1=O,206
11,CC12CC(O)C3C(CCC4CC(O)CCC43C)C1CCC2=O (stereo not drawn),235
12,O=c1[nH]c(=O)n(CCO)c2c1CCCC2,275 to 278
13,CCCC(C)CC(C)O (stereo not drawn),-102
14,COc1cc(C=O)cc(OC)c1OC,75
15,N=C(N)NCC(O)CC(O)(C(=O)O)C1OC(n2cc(CO)c(N)nc2=O)C=CC1NC(=O)C(N)CO (stereo not drawn),> 300
16,CC(C)=NN(c1ccccc1)P(=O)(N1CC1)N1CC1,120
17,N=C(N)NOCCC(N)C(=O)O (stereo not drawn),184
18,CCCCOCN(C(=O)CCl)c1c(CC)cccc1CC,-0.55
